In the assay the test system is BDF1 mice, B16 melanoma ip, median survival T/C. The assay can be described thus: NCI In Vivo Anticancer Drug Screen. Data for tumor model B16 Melanoma (intraperitoneal) in B6D2F1 (BDF1) mice. Particulars: endpoint: median survival time, higher = longer survival. In short, it runs like this:
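Tumor-bearing mice received test compound or vehicle. Survival or tumor size was then measured in both groups. The treated-group figure was divided by the control-group figure.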

Setting [1] is: dose: 100.0 mg/kg/injection, schedule: Q01DX009 (ip), vehicle: saline with Tween-80.
[2] abbreviates: dose: 200.0 mg/kg/injection, schedule: Q01DX009 (ip), vehicle: saline with Tween-80.
[3] abbreviates: dose: 400.0 mg/kg/injection, schedule: Q01DX009 (ip), vehicle: saline with Tween-80.
The mark [4] stands for this setting: dose: 25.0 mg/kg/injection, schedule: Q01DX009 (ip), vehicle: saline.
Where [5] appears, read: dose: 50.0 mg/kg/injection, schedule: Q01DX009 (ip), vehicle: saline.
The mark [6] stands for this setting: dose: 50.0 mg/kg/injection, schedule: Q01DX009 (ip), vehicle: Klucel (hydroxypropylcellulose) (HPC).
Where [7] appears, read: dose: 100.0 mg/kg/injection, schedule: Q01DX009 (ip), vehicle: Klucel (hydroxypropylcellulose) (HPC).
[8] abbreviates: dose: 200.0 mg/kg/injection, schedule: Q01DX009 (ip), vehicle: Klucel (hydroxypropylcellulose) (HPC).
Setting [9] is: dose: 25.0 mg/kg/injection, schedule: Q01DX009 (ip), vehicle: Klucel (hydroxypropylcellulose) (HPC).
Where [10] appears, read: dose: 25.0 mg/kg/injection, schedule: Q01DX009 (ip), vehicle: saline with Tween-80.
[11] abbreviates: dose: 50.0 mg/kg/injection, schedule: Q01DX009 (ip), vehicle: saline with Tween-80.
[12] abbreviates: dose: 12.5 mg/kg/injection, schedule: Q01DX009 (ip), vehicle: saline sonified.
The mark [13] stands for this setting: dose: 25.0 mg/kg/injection, schedule: Q01DX009 (ip), vehicle: saline sonified.
Setting [14] is: dose: 100.0 mg/kg/injection, schedule: Q01DX009 (ip), vehicle: saline.

Where “and” joins values, the source holds several entries; their conditions need not be identical. Identical values can stand only once. Toxic doses and inconclusive results are not listed.

As for `Clc1ccc2c(c1)C([P+](c1ccccc1)(c1ccccc1)c1ccccc1)c1cc(Cl)cc(Cl)c1-2` (configuration not stated), the T/C was 89 % of control under setting [1], 95 % of control under setting [2] and 89 % of control under setting [3].

With `O=C(N=C1C=CC(=NC(=O)OCc2ccccc2)C=C1)OCc1ccccc1`, the T/C is 98 % of control (dose: 75.0 mg/kg/injection, schedule: Q01DX009 (ip), vehicle: Klucel (hydroxypropylcellulose) (HPC)); 92 % of control (dose: 150.0 mg/kg/injection, schedule: Q01DX009 (ip), vehicle: Klucel (hydroxypropylcellulose) (HPC)); 91 % of control (dose: 300.0 mg/kg/injection, schedule: Q01DX009 (ip), vehicle: Klucel (hydroxypropylcellulose) (HPC)).

In the case of `C1CCN(CCC2CCNCC2)C1`, the T/C was 109 % of control under setting [4] and 90 % of control under setting [5].

With `CC1(C)SC(C(NC(=O)COc2ccccc2)C(=O)O)NC1C(=O)O` (configuration not stated), the T/C was 107 % of control under setting [6], 110 % of control under setting [7] and 105 % of control under setting [8].

Regarding `O=S1(=O)CC2(N3CCOCC3)CCCCC21` (configuration not stated), the T/C was 102 % of control under setting [1] and 104 % of control under setting [2].

`CCOC(=O)C(OCC)P(=O)(OCC)OCC` (configuration not stated): the T/C runs as follows: under setting [9], 95 % of control; under setting [6], 95 % of control; under setting [7], 107 % of control; under setting [8], 102 % of control; (dose: 400.0 mg/kg/injection, schedule: Q01DX009 (ip), vehicle: Klucel (hydroxypropylcellulose) (HPC)) 100 % of control.

Turning to `O=C(Nc1ccccc1F)C(c1ccccc1)c1ccccc1`, the T/C was 101 % of control (dose: 12.5 mg/kg/injection, schedule: Q01DX009 (ip), vehicle: saline with Tween-80); 95 % of control under setting [10]; 95 % of control under setting [11]; 86 % of control under setting [8].

For the compound `O=c1[nH]c(=O)n(C2CC(O)C(CO)O2)cc1I` (configuration not stated), the T/C by setting is: under setting [10], 106 % of control; under setting [11], 118 % of control; under setting [1], 123 % of control; under setting [2], 116 % of control; under setting [3], 120 % of control; (dose: 800.0 mg/kg/injection, schedule: Q01DX009 (ip), vehicle: saline with Tween-80) 150 % of control.

Regarding `Cc1ccccc1OCC(O)CO` (configuration not stated), the T/C reads like this: under setting [11], 92 % of control; under setting [1], 110 % of control; under setting [2], 110 % of control; under setting [3], 105 % of control.

`Clc1cc(CBr)c(Cl)c(Cl)c1CBr`: the T/C reads like this: (dose: 1.56 mg/kg/injection, schedule: Q01DX009 (ip), vehicle: Klucel (hydroxypropylcellulose) (HPC)) 94 % of control; (dose: 3.12 mg/kg/injection, schedule: Q01DX009 (ip), vehicle: Klucel (hydroxypropylcellulose) (HPC)) 88 % of control; (dose: 6.25 mg/kg/injection, schedule: Q01DX009 (ip), vehicle: Klucel (hydroxypropylcellulose) (HPC)) 94 % of control; (dose: 12.5 mg/kg/injection, schedule: Q01DX009 (ip), vehicle: Klucel (hydroxypropylcellulose) (HPC)) 92 % of control.

Consider `CCCCNC(=O)Nc1cc(C)ccc1C`, for which the T/C is 100 % of control under setting [7] and 100 % of control under setting [8].

Consider `CNc1n[n+](-c2ccccc2)no1`, for which the T/C (dose: 12.5 mg/kg/injection, schedule: Q01DX009 (ip), vehicle: saline) was 119 % of control and the T/C under setting [4] was 124 % of control.

In the case of `CN(C(=N)N)c1ccc(C(=O)Oc2ccc([N+](=O)[O-])cc2)cc1`, the T/C is, setting by setting: under setting [6], 104 % of control; under setting [7], 101 % of control; under setting [8], 103 % of control.

Regarding `CCCCNC(=O)Oc1ccc(OCc2ccccc2)cc1`, the T/C is 107 % of control under setting [1], 107 % of control under setting [2] and 92 % of control under setting [3].

`COc1cc(NS(C)(=O)=O)ccc1Nc1c2cccc(C)c2nc2c(C)cccc12`: the T/C (dose: 0.8 mg/kg/injection, schedule: Q01DX009 (ip), vehicle: other) was 115 % of control; the T/C (dose: 1.6 mg/kg/injection, schedule: Q01DX009 (ip), vehicle: other) was 115 % of control; the T/C (dose: 6.25 mg/kg/injection, schedule: Q01DX009 (ip), vehicle: saline sonified) was 158 % of control; the T/C (dose: 12.5 mg/kg/injection, schedule: Q01DX009 (ip), vehicle: other) is 189 % of control; the T/C under setting [12] was 204 % of control; the T/C (dose: 25.0 mg/kg/injection, schedule: Q01DX009 (ip), vehicle: other) was 208 % of control. Further, the T/C is 183 % of control under setting [13]; 166 % of control (dose: 25.0 mg/kg/injection, schedule: Q04DX003 (ip), vehicle: other); 169 % of control (dose: 50.0 mg/kg/injection, schedule: Q01DX001 (ip), vehicle: saline sonified); 156 % of control (dose: 50.0 mg/kg/injection, schedule: Q04DX003 (ip), vehicle: other); 165 % of control (dose: 100.0 mg/kg/injection, schedule: Q01DX001 (ip), vehicle: saline sonified); 152 % of control (dose: 200.0 mg/kg/injection, schedule: Q01DX001 (ip), vehicle: saline sonified).

As for `ClC1C(Cl)C(Cl)C(Cl)C(Cl)C1Cl` (configuration not stated), the T/C is 95 % of control under setting [9]; 100 % of control under setting [10]; 105 % of control under setting [6]; 99 % of control under setting [11]; 93 % of control under setting [7]; 93 % of control under setting [8]. Further, the T/C under setting [2] is 96 % of control and the T/C under setting [3] is 89 % of control.

As to `N#C/C(=C\c1c[nH]c2ccccc12)C(N)=O`, the T/C reads like this: under setting [1], 108 % of control; under setting [2], 108 % of control; under setting [3], 108 % of control.

On to `SCc1ccccn1`, for which the T/C reads like this: under setting [14], 112 % of control; (dose: 200.0 mg/kg/injection, schedule: Q01DX009 (ip), vehicle: saline) 115 % of control; (dose: 400.0 mg/kg/injection, schedule: Q01DX009 (ip), vehicle: saline) 105 % of control.

In the case of `C=C1C(=O)OC2CC(C)C3C=CC(=O)C3CC12` (configuration not stated), the T/C by setting is: (dose: 0.5 mg/kg/injection, schedule: Q01DX009 (ip), vehicle: Klucel (hydroxypropylcellulose) (HPC)) 101 % of control; (dose: 1.0 mg/kg/injection, schedule: Q01DX009 (ip), vehicle: Klucel (hydroxypropylcellulose) (HPC)) 109 % of control; (dose: 2.0 mg/kg/injection, schedule: Q01DX009 (ip), vehicle: Klucel (hydroxypropylcellulose) (HPC)) 101 % of control.

For `S=C(Nc1ccccn1)Nc1ccccn1`, the T/C reads like this: under setting [9], 97 % of control; under setting [6], 104 % of control; under setting [7], 111 % of control.

On to `CN(C)CCCN1c2ccccc2Sc2ccc(Cl)cc21`, for which the T/C runs as follows: (dose: 1.0 mg/kg/injection, schedule: Q01DX009 (ip), vehicle: saline) 101 % of control; (dose: 2.0 mg/kg/injection, schedule: Q01DX009 (ip), vehicle: saline) 111 % of control and 93 % of control; (dose: 4.0 mg/kg/injection, schedule: Q01DX009 (ip), vehicle: saline) 110 % of control and 100 % of control; (dose: 8.0 mg/kg/injection, schedule: Q01DX009 (ip), vehicle: saline) 92 % of control and 102 % of control; (dose: 12.5 mg/kg/injection, schedule: Q01DX009 (ip), vehicle: alkali diluted with saline) 100 % of control; under setting [12], 97 % of control. For the same compound, the T/C was 94 % of control (dose: 16.0 mg/kg/injection, schedule: Q01DX009 (ip), vehicle: saline); 92 % of control (dose: 25.0 mg/kg/injection, schedule: Q01DX009 (ip), vehicle: alkali diluted with saline); 90 % of control under setting [13]; 92 % of control (dose: 32.0 mg/kg/injection, schedule: Q01DX009 (ip), vehicle: saline); 87 % of control (dose: 64.0 mg/kg/injection, schedule: Q01DX009 (ip), vehicle: saline).

With `CC1(C)N=C(N)N=C(N)N1c1ccc(OCC(=O)N2CCOCC2)c(Cl)c1`, the T/C by setting is: under setting [4], 104 % of control; under setting [5], 93 % of control; under setting [14], 98 % of control.

For `CC(=N)/C(C(=O)NC1CCCCC1)=C(/C)O`, the T/C (dose: 100.0 mg/kg/injection, schedule: Q04DX003 (ip), vehicle: saline) is 100 % of control; the T/C (dose: 200.0 mg/kg/injection, schedule: Q04DX003 (ip), vehicle: saline) was 97 % of control; the T/C (dose: 400.0 mg/kg/injection, schedule: Q04DX003 (ip), vehicle: saline) was 97 % of control.

For `CC(=O)NCC1(c2ccccc2)CCN(CCCC(=O)c2ccc(F)cc2)CC1`, the T/C by setting is: under setting [6], 93 % of control; under setting [7], 106 % of control.

For the origin of these results see PubChem BioAssay AID192 (DTP/NCI, 2004).
